Measured values: PubChem BioAssay (NCI)
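Briefly, cells in 96-well plates were exposed to five compound concentrations for 48 h, and endpoints were estimated by linear interpolation. GI50 is the concentration that inhibits growth by half. TGI: total growth inhibition.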

What was measured:
Assay in all cases: inhibition of tumour cell growth, NCI panel, 48 h
[1] = tested on: 786-0 renal
[2] = tested on: A498 renal
[3] = tested on: A549 NSCLC
[4] = tested on: ACHN renal
[5] = tested on: BT-549 breast
[6] = tested on: CAKI-1 renal
[7] = tested on: CCRF-CEM leukemia
[8] = tested on: COLO 205 colon
[9] = tested on: DU-145 prostate
[10] = tested on: EKVX NSCLC
[11] = tested on: HCC-2998 colon
[12] = tested on: HCT-116 colon
[13] = tested on: HCT-15 colon
[14] = tested on: HL-60(TB) leukemia
[15] = tested on: HOP-62 NSCLC
[16] = tested on: HOP-92 NSCLC
[17] = tested on: HS 578T breast
[18] = tested on: HT29 colon
[19] = tested on: IGROV1 ovarian
[20] = tested on: K-562 leukemia
[21] = tested on: KM12 colon
[22] = tested on: LOX IMVI melanoma
[23] = tested on: M14 melanoma
[24] = tested on: MALME-3M melanoma
[25] = tested on: MCF7 breast
[26] = tested on: MDA-MB-231 breast
[27] = tested on: MDA-MB-435
[28] = tested on: MOLT-4 leukemia
[29] = tested on: NCI-H226 lung
[30] = tested on: NCI-H460 lung
[31] = tested on: NCI-H522 lung
[32] = tested on: NCI/ADR-RES ovarian
[33] = tested on: OVCAR-3 ovarian
[34] = tested on: OVCAR-4 ovarian
[35] = tested on: OVCAR-5 ovarian
[36] = tested on: OVCAR-8 ovarian
[37] = tested on: PC-3 prostate
[38] = tested on: RPMI-8226 leukemia
[39] = tested on: RXF 393 renal
[40] = tested on: SF-268 CNS
[41] = tested on: SF-295 CNS
[42] = tested on: SF-539 CNS
[43] = tested on: SK-MEL-2 melanoma
[44] = tested on: SK-MEL-28 melanoma
[45] = tested on: SK-MEL-5 melanoma
[46] = tested on: SK-OV-3 ovarian
[47] = tested on: SN12C renal
[48] = tested on: SNB-19 CNS
[49] = tested on: SNB-75 CNS
[50] = tested on: SR leukemia
[51] = tested on: SW-620 colon
[52] = tested on: T-47D breast
[53] = tested on: TK-10 renal
[54] = tested on: U251 CNS
[55] = tested on: UACC-257 melanoma
[56] = tested on: UACC-62 melanoma
[57] = tested on: UO-31 renal

`COc1cc(OC)c(S(N)(=O)=O)cc1C(=O)/C=C/c1ccc(C)cc1` showed a GI50 [1] of 3.85 µM, a TGI [1] of 22.3 µM and a GI50 [2] of 16.2 µM. For the same compound, the TGI [2] was 30.7 µM, the GI50 [3] was 2750 nM and the TGI [3] was 10.3 µM. It also gave a GI50 [4] of 3.86 µM, a TGI [4] of 13.9 µM and a GI50 [5] of 2180 nM. For the same compound, the TGI [5] was 6.79 µM, the GI50 [6] was 2420 nM and the TGI [6] was 12.4 µM. For the same compound, the GI50 [7] was 3.99 µM, the TGI [7] was > 100 µM and the GI50 [8] was 3.33 µM. For the same compound, the TGI [8] was 9.26 µM, the GI50 [9] was 4.23 µM and the TGI [9] was 18.9 µM. The GI50 [10] was 4.33 µM, the TGI [10] was 16.4 µM and the GI50 [11] was 2390 nM. The TGI [11] was 5.47 µM, the GI50 [12] was 3.06 µM and the TGI [12] was 12.2 µM. It also gave a GI50 [13] of 2560 nM, a TGI [13] of 12.9 µM and a GI50 [14] of 2520 nM. For the same compound, the TGI [14] was 15.8 µM, the GI50 [15] was 2900 nM and the TGI [15] was 7.72 µM. It also gave a GI50 [16] of 2300 nM, a TGI [16] of 7.45 µM and a GI50 [17] of 3.5 µM. The TGI [17] was 35.8 µM, the GI50 [18] was 3.5 µM and the TGI [18] was 10.1 µM. For the same compound, the GI50 [19] was 3.56 µM, the TGI [19] was 14.4 µM and the GI50 [20] was 2430 nM. For the same compound, the TGI [20] was > 100 µM, the GI50 [21] was 3.13 µM and the TGI [21] was 14.5 µM. It also gave a GI50 [22] of 543 nM, a TGI [22] of 5.01 µM and a GI50 [23] of 3.25 µM. It also gave a TGI [23] of 13 µM, a GI50 [24] of 8.55 µM and a TGI [24] of 23.6 µM. It also gave a GI50 [25] of 2480 nM, a TGI [25] of 12.4 µM and a GI50 [26] of 3.41 µM. For the same compound, the TGI [26] was 12.5 µM, the GI50 [27] was 2270 nM and the TGI [27] was 6.72 µM. It also gave a GI50 [28] of 3.07 µM, a TGI [28] of 29.6 µM and a GI50 [29] of 4.14 µM. For the same compound, the TGI [29] was 19.3 µM, the GI50 [30] was 2240 nM and the TGI [30] was 5.65 µM. For the same compound, the GI50 [31] was 2480 nM, the TGI [31] was 8.03 µM and the GI50 [32] was 5.25 µM. It also gave a TGI [32] of 49.2 µM, a GI50 [33] of 3.05 µM and a TGI [33] of 12.6 µM. The GI50 [34] was 3.66 µM, the TGI [34] was 16.3 µM and the GI50 [35] was 2570 nM. The TGI [35] was 7.12 µM, the GI50 [36] was 2170 nM and the TGI [36] was 5.19 µM. For the same compound, the GI50 [37] was 3.42 µM, the TGI [37] was 14.4 µM and the GI50 [38] was 3.2 µM. The TGI [38] was 24.7 µM, the GI50 [39] was 2240 nM and the TGI [39] was 6.06 µM. For the same compound, the GI50 [40] was 3.2 µM, the TGI [40] was 19.8 µM and the GI50 [41] was 3.89 µM. The TGI [41] was 11.5 µM, the GI50 [42] was 2170 nM and the TGI [42] was 5.05 µM. It also gave a GI50 [43] of 11.5 µM, a TGI [43] of 25.3 µM and a GI50 [44] of 4.09 µM. The TGI [44] was 15.3 µM, the GI50 [45] was 7.81 µM and the TGI [45] was 21.1 µM. It also gave a GI50 [46] of 3.18 µM, a TGI [46] of 9.43 µM and a GI50 [47] of 2950 nM. It also gave a TGI [47] of 11.4 µM, a GI50 [48] of 3.65 µM and a TGI [48] of 15.1 µM. For the same compound, the GI50 [49] was 1840 nM, the TGI [49] was 5.09 µM and the GI50 [50] was 2260 nM. The TGI [50] was 12.9 µM, the GI50 [51] was 3.43 µM and the TGI [51] was 12.6 µM. It also gave a GI50 [52] of 2320 nM, a TGI [52] of 7.55 µM and a GI50 [53] of 3.41 µM. For the same compound, the TGI [53] was 12.3 µM, the GI50 [54] was 2660 nM and the TGI [54] was 10.1 µM. For the same compound, the GI50 [55] was 3.86 µM, the TGI [55] was 15.9 µM and the GI50 [56] was 3.63 µM. It also gave a TGI [56] of 15.2 µM, a GI50 [57] of 3.46 µM and a TGI [57] of 14.5 µM.
